Test results taken from patent US20110152078A1, “Pesticidal Compound Mixtures” (BAYER CROPSCIENCE AG, priority 2009, published 2011).

Assays:
Format in all cases: in vivo
[1] = tested on: green peach aphid (Myzus persicae); test: Myzus persicae test (Example A), spray on infested cabbage leaves; conditions: single compound
Description: (§1) To produce a suitable preparation of active compound, 1 part by weight of active compound is mixed with the stated amount of solvent and emulsifier, and the concentrate is diluted with emulsifier-containing water to the desired concentration.
(§2) Cabbage leaves (Brassica oleracea) which are heavily infested by the green peach aphid (Myzus persicae) are treated by being sprayed with the preparation of the active compound at the desired concentration.
(§3) After the specified period of time, the mortality in % is determined. 100% means that all the aphids have been killed; 0% means that none of the aphids have been killed.

[2] = tested on: larvae of the fall army worm (Spodoptera frugiperda); test: Spodoptera frugiperda test (Example C), sprayed cabbage leaves; conditions: single compound
Description: as §1
Cabbage leaves (Brassica oleracea) are treated by being sprayed with the preparation of the active compound at the desired concentration and are infested with larvae of the fall army worm (Spodoptera frugiperda) as long as the leaves are still moist.
(§4) After the specified period of time, the mortality in % is determined. 100% means that all the caterpillars have been killed; 0% means that none of the caterpillars have been killed. According to the present application in this test e.g. the following combinations show a synergistic effect in comparison to the single compounds: […]

[3] = tested on: larvae of the mustard beetle (Phaedon cochleariae); test: Phaedon cochleariae larvae test (Example B), sprayed cabbage leaves; conditions: 144 h, single compound, after 6 d
Description: as §1
Cabbage leaves (Brassica oleracea) are treated by being sprayed with the preparation of the active compound at the desired concentration and are infested with larvae of the mustard beetle (Phaedon cochleariae) as long as the leaves are still moist.
as §4, with “beetle larvae” for “caterpillars”

[4] = tested on: green peach aphid (Myzus persicae); test: Myzus persicae test (Example E), spray on infested cabbage leaves; conditions: single compound
Description: as §1, §2, §3

[5] = tested on: cotton aphid (Aphis gossypii); test: Aphis gossypii test (Example D), spray on infested cotton leaves; conditions: single compound
Description: Solvent: 7 parts by weight of dimethylformamide Emulsifier: 2 parts by weight of alkylaryl polyglycolether
as §1
Cotton leaves (Gossypium hirsutum) which are heavily infested by the cotton aphid (Aphis gossypii) are treated by being sprayed with the preparation of the active compound at the desired concentration.
as §3

[6] = Myzus persicae, 144 h, 500 g/ha, after 6 d

CO/N=C(/C1=NOCCO1)c1ccccc1Oc1ncnc(Oc2ccccc2Cl)c1F [Fluoxastrobin, fluoxastrobin]
mortality at 500 g/ha [1, 6]: 0%

Cn1cc(C(=O)Nc2ccc(F)cc2-c2ccc(Cl)c(Cl)c2)c(C(F)F)n1 [Bixafen, bixafen]
Mortality in % after 6 d ([2]; 500 g/ha): 17% | Mortality in % after 6 d ([1]; 500 g/ha): 0%

CC1(C)[C@H](C=C(Cl)Cl)[C@H]1C(=O)OCc1c(F)c(F)cc(F)c1F [Transfluthrin]
mortality at 4 g/ha ([2]; Spodoptera frugiperda, 144 h, 4 g/ha, after 6 d): 50% | mortality at 20 g/ha ([3]; 20 g/ha): 0% | mortality at 10 g/ha ([4]; Myzus persicae, 144 h, 10 g/ha, after 6 d): 0% | mortality at 10 g/ha ([5]; Aphis gossypii, 144 h, 10 g/ha, after 6 d): 5% | mortality at 20 g/ha ([1]; Myzus persicae, 144 h, 20 g/ha, after 6 d): 70% | mortality at 100 g/ha ([1]; Myzus persicae, 144 h, 100 g/ha, after 6 d): 80%

CNC(=O)/C(=N/OC)c1ccccc1Oc1ccccc1 [Metominostrobin, metominostrobin]
mortality at 500 g/ha [1, 6]: 0%

O=C(NCCc1ncc(C(F)(F)F)cc1Cl)c1ccccc1C(F)(F)F [Fluopyram, fluopyram]
mortality at 500 g/ha ([3]; 500 g/ha): 0% | mortality at 500 g/ha [1, 6]: 0%

CON=C(C(=O)OC)c1ccccc1CON=C(C)c1cccc(C(F)(F)F)c1 [Trifloxystrobin, trifloxystrobin]
mortality at 500 g/ha [1, 6]: 0%

CSC1=N[C@@](C)(c2ccccc2)C(=O)N1Nc1ccccc1 [Fenamidone, fenamidone]
mortality at 200 g/ha ([4]; Myzus persicae, 144 h, 200 g/ha, after 6 d): 0% | mortality at 200 g/ha ([5]; Aphis gossypii, 144 h, 200 g/ha, after 6 d): 0%

Cc1nn(C)c(F)c1C(=O)Nc1ccccc1C(C)CC(C)C (stereo not drawn) [Penflufen, penflufen]
Mortality in % after 6 d ([4]; 200 g/ha): 0% | Mortality in % after 6 d ([5]; 200 g/ha): 0%

COC(=O)N(OC)c1ccccc1COc1ccn(-c2ccc(Cl)cc2)n1 [Pyraclostrobin, pyraclostrobin]
mortality at 500 g/ha [1, 6]: 0%
